Laboratory results taken from paper PMC3501554 (Drug and alcohol dependence, 2012).

What was measured:
[1] = following inhalation of 200 mg incinerated marijuana; ref Wilson et al., 2006; cited from earlier work
C57BL/6J mice = test: Observable effects; type: in vivo; conditions: Rimonabant (3 mg/kg s.c., 10 min before) / 50 mg placebo smoke

SMILES | Brain concentration of THC [1] [ng/g] | Hyperreflexia, percentage of mice showing presence of observable effect (C57BL/6J mice) [%] | Ptosis, percentage of mice showing presence of observable effect (C57BL/6J mice) [%] | Straub Tail, percentage of mice showing presence of observable effect (C57BL/6J mice) [%]
CCCCCc1cc(O)c2c(c1)OC(C)(C)[C@@H]1CCC(C)=C[C@@H]21 [THC, Δ^9-tetrahydrocannabinol] | 433 ± 66 | – | – | –
Cc1c(C(=O)NN2CCCCC2)nn(-c2ccc(Cl)cc2Cl)c1-c1ccc(Cl)cc1 [Rimonabant] | – | 0 | 0 | 0
